Usually IC50 stands for the concentration at which inhibition is half-maximal.

In one series the target is recombinant hMAO-B (Homo sapiens (Human), UniProt P27338). Kind of series: MAO-B activity assay (MAO-Glo assay kit). In kind it is biochemical. Particulars: 4 μM substrate, 30 mins pre-incubation. Summed up: (§1)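 Recombinant human enzymes were pre-incubated 30 min at room temperature with compound (0.1% DMSO), then given luminogenic substrate: 40 μM for SSAO and MAO-A (MAO-A buffer), 4 μM for MAO-B (MAO-B buffer).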

The next series has as its target recombinant hSSAO (Homo sapiens (Human), UniProt Q16853). Put plainly: SSAO Activity Assay (MAO-Glo assay kit). In kind it is biochemical. Particulars: 40 μM substrate, 30 mins pre-incubation. In outline: as §1
Series [1] can be described thus: Brain Kpuu assay (BBB assay and protein binding assay). The following applies: ICR mice, 1 mg/kg IV, plasma and brain collected at 5 minutes after dosing; for Kp uu at 5 min: mouse, read-out: Kpuu (mouse, t = 5 min). The series is classed as in vivo. As for the experimental part:
For example, Brain Kpuu assay composed of Blood-Brain-Barrier (BBB) assay and protein binding assay, can be utilized. The protein binding assay comprises equilibrium dialysis against brain lysate and plasma to calculate fu(brain) and fu(plasma), respectively. The BBB assay can be conducted in experimental animals at 1 mg/kg IV dosage. After dosing with the compounds of the present application, plasma and brain samples can be collected to analyze compound concentration (Cplasma and Cbrain). The Kpuu value of the tested compounds can be calculated by the equation: […]
Brain Kpuu assay is composed of Blood-Brain-Barrier (BBB) assay and protein binding assay, which are conducted in ICR mice. Protein binding assays were performed in 96-well plates, using equilibrium dialysis against brain lysate and plasma to calculate fu(brain) and fu(plasma), respectively. BBB assays were conducted in mice at 1 mg/kg IV dosage. Plasma and brain samples were collected at 5 minutes after dosing to analyze compounds concentration (Cplasma and Cbrain). The Kpuu value of the tested compounds was calculated by the equation: […]

Another series concerns the target recombinant hMAO-A (Homo sapiens (Human), UniProt P21397). Put plainly: MAO-A activity assay (MAO-Glo assay kit). The series is classed as biochemical. Particulars: 40 μM substrate, 30 mins pre-incubation. Summed up: as §1

Sequence of recombinant hSSAO (Q16853 whole entry): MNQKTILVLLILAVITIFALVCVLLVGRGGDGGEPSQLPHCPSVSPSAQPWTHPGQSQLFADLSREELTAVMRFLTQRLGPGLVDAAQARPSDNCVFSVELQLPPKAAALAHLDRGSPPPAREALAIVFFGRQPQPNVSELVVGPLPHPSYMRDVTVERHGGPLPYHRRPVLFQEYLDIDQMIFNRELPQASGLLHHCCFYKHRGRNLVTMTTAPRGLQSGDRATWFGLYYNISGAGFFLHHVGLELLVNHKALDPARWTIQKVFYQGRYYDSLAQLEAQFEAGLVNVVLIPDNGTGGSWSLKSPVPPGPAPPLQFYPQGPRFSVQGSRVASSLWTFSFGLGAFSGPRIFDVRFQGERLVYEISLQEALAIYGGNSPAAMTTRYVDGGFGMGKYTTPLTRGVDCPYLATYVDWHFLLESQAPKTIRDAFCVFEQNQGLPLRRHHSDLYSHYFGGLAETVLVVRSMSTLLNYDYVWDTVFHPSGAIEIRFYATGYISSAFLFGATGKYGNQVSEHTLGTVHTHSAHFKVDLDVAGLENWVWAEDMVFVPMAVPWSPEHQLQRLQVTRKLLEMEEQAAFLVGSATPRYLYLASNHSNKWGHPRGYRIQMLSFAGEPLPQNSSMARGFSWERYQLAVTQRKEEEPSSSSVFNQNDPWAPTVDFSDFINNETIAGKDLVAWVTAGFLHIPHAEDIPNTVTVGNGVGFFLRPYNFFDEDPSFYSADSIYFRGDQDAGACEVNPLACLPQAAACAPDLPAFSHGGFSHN
Sequence of recombinant hMAO-A (P21397 whole entry): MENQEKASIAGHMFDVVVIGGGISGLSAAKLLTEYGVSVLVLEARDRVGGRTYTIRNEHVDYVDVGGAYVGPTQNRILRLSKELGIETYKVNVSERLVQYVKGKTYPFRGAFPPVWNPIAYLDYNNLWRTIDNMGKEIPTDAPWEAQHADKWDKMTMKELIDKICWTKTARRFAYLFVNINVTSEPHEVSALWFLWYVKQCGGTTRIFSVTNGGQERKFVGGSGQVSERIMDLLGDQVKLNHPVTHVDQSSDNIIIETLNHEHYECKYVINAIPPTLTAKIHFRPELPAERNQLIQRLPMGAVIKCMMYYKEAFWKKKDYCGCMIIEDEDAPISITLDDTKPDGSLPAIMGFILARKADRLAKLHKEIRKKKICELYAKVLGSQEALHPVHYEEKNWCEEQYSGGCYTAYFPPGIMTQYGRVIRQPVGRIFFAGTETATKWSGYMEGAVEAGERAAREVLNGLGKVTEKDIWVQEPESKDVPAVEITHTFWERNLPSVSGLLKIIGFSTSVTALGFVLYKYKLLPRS
Sequence of recombinant hMAO-B (P27338 whole entry): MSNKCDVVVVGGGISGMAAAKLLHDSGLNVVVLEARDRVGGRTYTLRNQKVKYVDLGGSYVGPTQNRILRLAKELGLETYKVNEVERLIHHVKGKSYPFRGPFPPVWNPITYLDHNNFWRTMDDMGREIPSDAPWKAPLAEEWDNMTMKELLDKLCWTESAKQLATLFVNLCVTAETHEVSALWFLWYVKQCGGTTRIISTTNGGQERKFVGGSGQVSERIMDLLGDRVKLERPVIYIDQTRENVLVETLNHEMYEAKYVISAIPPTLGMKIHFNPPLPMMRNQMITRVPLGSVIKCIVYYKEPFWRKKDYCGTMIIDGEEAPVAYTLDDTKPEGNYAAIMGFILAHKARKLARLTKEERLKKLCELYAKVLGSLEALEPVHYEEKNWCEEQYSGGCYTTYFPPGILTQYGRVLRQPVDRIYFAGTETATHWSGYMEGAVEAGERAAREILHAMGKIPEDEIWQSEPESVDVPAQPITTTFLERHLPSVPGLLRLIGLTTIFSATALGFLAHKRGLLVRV

As to `CC(C)(C)NC(=O)C12CCC(CS(=O)(=O)c3ccc(OC/C(=C/F)CN)cc3)(CC1)CC2` [Compound 70, (E)-4-(((4-((2-(aminomethyl)-3-fluoroallyl)oxy)phenyl)sulfonyl)methyl)-N-(tert-butyl)bicyclo[2.2.2]octane-1-carboxamide], the IC50 at recombinant hMAO-B is 10 to 30 µM; on recombinant hSSAO it was 0.02 to 0.1 µM; at recombinant hMAO-A it was above 30 µM. Moreover, the Kp uu at 5 min in series [1] stood at 0.01.
For `NC/C(=C\F)COc1ccc(S(=O)(=O)CC23CCC(C(=O)NCC(F)(F)F)(CC2)CC3)cc1` [Compound 65, (E)-4-(((4-((2-(aminomethyl)-3-fluoroallyl)oxy)phenyl)sulfonyl)methyl)-N-(2,2,2-trifluoroethyl)bicyclo[2.2.2] octane-1-carboxamide], in that order: 10 to 30 µM, below 0.02 µM, above 30 µM and 0.018.
For `CC1(C(=O)NC23CCC(CS(=O)(=O)c4ccc(OC/C(=C/F)CN)cc4)(CC2)CC3)CC1` [Compound 91, (E)-N-(4-(((4-((2-(aminomethyl)-3-fluoroallyl)oxy)phenyl)sulfonyl)methyl)bicyclo[2.2.2]octan-1-yl)-1-methylcyclopropane-1-carboxamide], the figures for the IC50 at recombinant hMAO-B, at recombinant hSSAO and at recombinant hMAO-A were 10 to 30 µM, below 0.02 µM and above 30 µM, respectively. For the same compound, the Kp uu at 5 min in series [1] was determined as 0.077.
As for `CC1(C)CC(=O)N(CS(=O)(=O)c2ccc(OC/C(=C/F)CN)cc2)C1` [Compound 126, (E)-1-(((4-((2-(aminomethyl)-3-fluoroallyl)oxy)phenyl)sulfonyl)methyl)-4,4-dimethylpyrrolidin-2-one], the IC50 is 10 to 30 µM at recombinant hMAO-B, 0.1 to 0.5 µM on recombinant hSSAO and above 30 µM on recombinant hMAO-A.
On the same counts, the results for `NC/C(=C\F)COc1ccc(S(=O)(=O)CC2CCN(C(=O)C3CCCC3)CC2)c(F)c1` [Compound 58] are above 30 µM, 0.1 to 0.5 µM and above 30 µM.
With `CC1(CS(=O)(=O)c2ccc(OC/C(=C/F)CN)cc2)CCN(C(=O)C2(C(F)(F)F)CC2)CC1` [Compound 55, (E)-(4-(((4-((2-(aminomethyl)-3-fluoroallyl)oxy)phenyl)sulfonyl)methyl)-4-methylpiperidin-1-yl)(1-(trifluoromethyl)cyclopropyl) methanone], the IC50 at recombinant hMAO-B was 10 to 30 µM; on recombinant hSSAO, 0.02 to 0.1 µM; on recombinant hMAO-A, above 30 µM.
For `CC1(C)CCC(=O)N1CS(=O)(=O)c1ccc(OC/C(=C/F)CN)cc1Cl` [Compound 124, (E)-1-(((4-((2-(aminomethyl)-3-fluoroallyl)oxy)-2-chlorophenyl)sulfonyl)methyl)-5,5-dimethylpyrrolidin-2-one], in that order: above 30 µM, 0.02 to 0.1 µM and above 30 µM.
Take `CC(C)(C)NC(=O)c1ccc(OC/C(=C/F)CN)cc1.Cl` [BI 1467335 (PXS-4728A), reference compound]: the “Kpuu (mouse, t = 5 min)” value in series [1] is listed as 0.23.
With `CN(C)C(=O)C12CCC(CS(=O)(=O)c3ccc(OC/C(=C/F)CN)cc3)(CC1)CC2` [compound 62, (E)-4-(((4-((2-(aminomethyl)-3-fluoroallyl)oxy)phenyl)sulfonyl)methyl)-N,N-dimethylbicyclo[2.2.2]octane-1-carboxamide], the IC50 was in the range of 10 to 30 µM at recombinant hMAO-B and 0.02 to 0.1 µM at recombinant hSSAO. For the same compound, the Kp uu at 5 min in series [1] worked out at 0.034.
In the case of `NC/C(=C\F)COc1ccc(S(=O)(=O)CN2CCCCC2=O)cc1` [Compound 129, (E)-1-(((4-((2-(aminomethyl)-3-fluoroallyl)oxy)phenyl)sulfonyl)methyl)piperidin-2-one], the results for the IC50 at recombinant hMAO-B, on recombinant hSSAO and at recombinant hMAO-A were 10 to 30 µM, 0.02 to 0.1 µM and above 30 µM, respectively.
For `CC1(C)COCC(=O)N1CS(=O)(=O)c1ccc(OC/C(=C/F)CN)cc1` [Compound 132, (E)-4-(((4-((2-(aminomethyl)-3-fluoroallyl)oxy)phenyl)sulfonyl)methyl)-5,5-dimethylmorpholin-3-one], in that order: below 10 µM, 0.02 to 0.1 µM and above 30 µM.
Regarding `CC(C)C(=O)N(C)CS(=O)(=O)c1ccc(OC/C(=C/F)CN)cc1` [Compound 122, (E)-N-(((4-((2-(aminomethyl)-3-fluoroallyl)oxy)phenyl)sulfonyl)methyl)-N-methylisobutyramide], the half-inhibitory concentration (IC50) is below 10 µM on recombinant hMAO-B, 0.02 to 0.1 µM at recombinant hSSAO and above 30 µM on recombinant hMAO-A.
Take `NC/C(=C\F)COc1ccc(S(=O)(=O)CC2CCN(C(=O)C3CC3)CC2)cc1` [Compound 44, (E)-(4-(((4-((2-(aminomethyl)-3-fluoroallyl)oxy)phenyl)sulfonyl)methyl)piperidin-1-yl)(cyclopropyl)methanone]: the IC50 at recombinant hMAO-B is above 30 µM; on recombinant hSSAO it was 0.02 to 0.1 µM; at recombinant hMAO-A it was above 30 µM. In series [1], the Kp uu at 5 min is 0.025.
Take `NC/C(=C\F)COc1ccc(S(=O)(=O)CN2C(=O)CCc3ccccc32)cc1` [Compound 119, (E)-1-(((4-((2-(aminomethyl)-3-fluoroallyl)oxy)phenyl)sulfonyl)methyl)-3,4-dihydroquinolin-2(1H)-one]: the results for the IC50 on recombinant hMAO-B, on recombinant hSSAO and on recombinant hMAO-A were above 30 µM, 0.02 to 0.1 µM and 10 to 30 µM, respectively.

The record behind these values is patent publication US11472769B2, “SSAO inhibitors and use thereof” (Eccogene (Shanghai) Co., Ltd., priority 2019, dated 2022).
